In patent US20200370087A1, “METHOD FOR DETERMINING MICROBIAL SUSCEPTIBILITY TO ANTIBIOTIC AGENTS” (Ascilion AB, priority 2017, published 2020):

How the values were obtained:
[1] = test system: Enterococcus faecalis (ATCC 29212); assay: Glucose consumption susceptibility test, blood culture diluted in MHB with glucose (Example 1); format: cell-based; design: glucose concentration, t = 0 / glucose concentration, t = 60 / glucose concentration, t = 120 / glucose concentration, t = 180 / glucose concentration, t = 240 / dC/dT (rate of change in glucose concentration): unit not given here; conditions: for F = the rate of change in glucose concentration in relation to the reference / dC/dT (rate of change in glucose concentration) / glucose concentration, t = 0 / glucose concentration, t = 60 / glucose concentration, t = 120 / glucose concentration, t = 180 / glucose concentration, t = 240: E. faecalis; for glucose concentration, t = 0: 0 minutes; for glucose concentration, t = 60: 60 minutes; for glucose concentration, t = 120: 120 minutes; for glucose concentration, t = 180: 180 minutes; for glucose concentration, t = 240: 240 minutes
Protocol: (§1) Strains of Escherichia coli (ATCC 25922), Enterococcus faecalis (ATCC 29212) and Staphylococcus aureus (ATCC 29213) were inoculated in blood culture bottles (SVA, Uppsala, Sweden) and cultivated according to the manufacturer's instructions until positive.
(§2) Medium from each blood culture bottle was diluted 1:100 with cation adjusted Mueller-Hinton broth (SVA, Uppsala, Sweden) supplemented with glucose to a concentration of 1.0 mg/mL.
(§3) Glucose concentrations were measured at 0, 60, 120, 180, and 240 minutes using a WaveSense Jazz glucometer (AgaMatrix, Inc., Salem, N.H., USA) with accompanying test strips.
(§4) Susceptibility scores corresponding to MIC values were calculated as described above. A 80% threshold was applied, i.e. the lowest concentration of antibiotic that entailed a rate of change in glucose concentration that was equal to or less than 80% of the reference was selected as the Minimal Inhibitory Concentration. The rate of change was calculated between the measurements at 60 and 180 minutes.

[2] = test system: Staphylococcus aureus (ATCC 29213); assay: as above; format: cell-based; design: glucose concentration, t = 0 / glucose concentration, t = 60 / glucose concentration, t = 120 / glucose concentration, t = 180 / glucose concentration, t = 240 / dC/dT (rate of change in glucose concentration): unit not given here; conditions: for F = the rate of change in glucose concentration in relation to the reference / dC/dT (rate of change in glucose concentration) / glucose concentration, t = 0 / glucose concentration, t = 60 / glucose concentration, t = 120 / glucose concentration, t = 180 / glucose concentration, t = 240: S. aureus; for glucose concentration, t = 0: 0 minutes; for glucose concentration, t = 60: 60 minutes; for glucose concentration, t = 120: 120 minutes; for glucose concentration, t = 180: 180 minutes; for glucose concentration, t = 240: 240 minutes
Protocol: as §1, §2, §3, §4

gentamicin
F = the rate of change in glucose concentration in relation to the reference ([1]; antibiotic 0.25 μg/mL): 144%
dC/dT (rate of change in glucose concentration) ([1]; antibiotic 0.25 μg/mL): 52
glucose concentration, t = 0 ([1]; antibiotic 0.25 μg/mL): 142
glucose concentration, t = 60 ([1]; antibiotic 0.25 μg/mL): 156
glucose concentration, t = 120 ([1]; antibiotic 0.25 μg/mL): 143
glucose concentration, t = 180 ([1]; antibiotic 0.25 μg/mL): 87
F = the rate of change in glucose concentration in relation to the reference ([1]; antibiotic 0.5 μg/mL): 148%
dC/dT (rate of change in glucose concentration) ([1]; antibiotic 0.5 μg/mL): 53
glucose concentration, t = 0 ([1]; antibiotic 0.5 μg/mL): 146
glucose concentration, t = 60 ([1]; antibiotic 0.5 μg/mL): 160
glucose concentration, t = 120 ([1]; antibiotic 0.5 μg/mL): 138
glucose concentration, t = 180 ([1]; antibiotic 0.5 μg/mL): 97
F = the rate of change in glucose concentration in relation to the reference ([1]; antibiotic 1 μg/mL): 106%
dC/dT (rate of change in glucose concentration) ([1]; antibiotic 1 μg/mL): 38
glucose concentration, t = 0 ([1]; antibiotic 1 μg/mL): 145
glucose concentration, t = 60 ([1]; antibiotic 1 μg/mL): 150
glucose concentration, t = 120 ([1]; antibiotic 1 μg/mL): 138
glucose concentration, t = 180 ([1]; antibiotic 1 μg/mL): 100
glucose concentration, t = 240 ([1]; antibiotic 1 μg/mL): 36
F = the rate of change in glucose concentration in relation to the reference ([1]; antibiotic 2 μg/mL): 75%
dC/dT (rate of change in glucose concentration) ([1]; antibiotic 2 μg/mL): 27
glucose concentration, t = 0 ([1]; antibiotic 2 μg/mL): 147
glucose concentration, t = 60 ([1]; antibiotic 2 μg/mL): 156
glucose concentration, t = 120 ([1]; antibiotic 2 μg/mL): 143
glucose concentration, t = 180 ([1]; antibiotic 2 μg/mL): 110
glucose concentration, t = 240 ([1]; antibiotic 2 μg/mL): 75
F = the rate of change in glucose concentration in relation to the reference ([1]; antibiotic 4 μg/mL): 46%
dC/dT (rate of change in glucose concentration) ([1]; antibiotic 4 μg/mL): 17
glucose concentration, t = 0 ([1]; antibiotic 4 μg/mL): 147
glucose concentration, t = 60 ([1]; antibiotic 4 μg/mL): 154
glucose concentration, t = 120 ([1]; antibiotic 4 μg/mL): 151
glucose concentration, t = 180 ([1]; antibiotic 4 μg/mL): 118
glucose concentration, t = 240 ([1]; antibiotic 4 μg/mL): 104
F = the rate of change in glucose concentration in relation to the reference ([1]; antibiotic 8 μg/mL): 14%
dC/dT (rate of change in glucose concentration) ([1]; antibiotic 8 μg/mL): 5
glucose concentration, t = 0 ([1]; antibiotic 8 μg/mL): 143
glucose concentration, t = 60 ([1]; antibiotic 8 μg/mL): 155
glucose concentration, t = 120 ([1]; antibiotic 8 μg/mL): 134
glucose concentration, t = 180 ([1]; antibiotic 8 μg/mL): 136
glucose concentration, t = 240 ([1]; antibiotic 8 μg/mL): 140
F = the rate of change in glucose concentration in relation to the reference ([1]; antibiotic 16 μg/mL): 18%
dC/dT (rate of change in glucose concentration) ([1]; antibiotic 16 μg/mL): 6
glucose concentration, t = 0 ([1]; antibiotic 16 μg/mL): 147
glucose concentration, t = 60 ([1]; antibiotic 16 μg/mL): 160
glucose concentration, t = 120 ([1]; antibiotic 16 μg/mL): 152
glucose concentration, t = 180 ([1]; antibiotic 16 μg/mL): 155
F = the rate of change in glucose concentration in relation to the reference ([1]; antibiotic 32 μg/mL): 3%
dC/dT (rate of change in glucose concentration) ([1]; antibiotic 32 μg/mL): 1
glucose concentration, t = 0 ([1]; antibiotic 32 μg/mL): 143
glucose concentration, t = 60 ([1]; antibiotic 32 μg/mL): 151
glucose concentration, t = 180 ([1]; antibiotic 32 μg/mL): 142
glucose concentration, t = 240 ([1]; antibiotic 32 μg/mL): 148
MIC, Measured ([1]; E.faecalis, 80% threshold of reference rate of change, 60 to 180 minutes, N/A = not susceptible, no MIC value can be calculated): 2 mg/L
F = the rate of change in glucose concentration in relation to the reference ([2]; antibiotic 0.25 μg/mL): 66%
dC/dT (rate of change in glucose concentration) ([2]; antibiotic 0.25 μg/mL): 22
glucose concentration, t = 0 ([2]; antibiotic 0.25 μg/mL): 143
glucose concentration, t = 60 ([2]; antibiotic 0.25 μg/mL): 146
glucose concentration, t = 120 ([2]; antibiotic 0.25 μg/mL): 140
glucose concentration, t = 180 ([2]; antibiotic 0.25 μg/mL): 102
glucose concentration, t = 240 ([2]; antibiotic 0.25 μg/mL): 55
F = the rate of change in glucose concentration in relation to the reference ([2]; antibiotic 0.5 μg/mL): 57%
dC/dT (rate of change in glucose concentration) ([2]; antibiotic 0.5 μg/mL): 19
glucose concentration, t = 0 ([2]; antibiotic 0.5 μg/mL): 143
glucose concentration, t = 60 ([2]; antibiotic 0.5 μg/mL): 154
glucose concentration, t = 120 ([2]; antibiotic 0.5 μg/mL): 137
glucose concentration, t = 180 ([2]; antibiotic 0.5 μg/mL): 116
glucose concentration, t = 240 ([2]; antibiotic 0.5 μg/mL): 78
F = the rate of change in glucose concentration in relation to the reference ([2]; antibiotic 1 μg/mL): 30%
dC/dT (rate of change in glucose concentration) ([2]; antibiotic 1 μg/mL): 10
glucose concentration, t = 0 ([2]; antibiotic 1 μg/mL): 137
glucose concentration, t = 60 ([2]; antibiotic 1 μg/mL): 154
glucose concentration, t = 120 ([2]; antibiotic 1 μg/mL): 146
glucose concentration, t = 180 ([2]; antibiotic 1 μg/mL): 134
glucose concentration, t = 240 ([2]; antibiotic 1 μg/mL): 119
F = the rate of change in glucose concentration in relation to the reference ([2]; antibiotic 2 μg/mL): 12%
dC/dT (rate of change in glucose concentration) ([2]; antibiotic 2 μg/mL): 4
glucose concentration, t = 0 ([2]; antibiotic 2 μg/mL): 144
glucose concentration, t = 60 ([2]; antibiotic 2 μg/mL): 154
glucose concentration, t = 180 ([2]; antibiotic 2 μg/mL): 146
glucose concentration, t = 240 ([2]; antibiotic 2 μg/mL): 148
F = the rate of change in glucose concentration in relation to the reference ([2]; antibiotic 4 μg/mL): 10%
dC/dT (rate of change in glucose concentration) ([2]; antibiotic 4 μg/mL): 4
glucose concentration, t = 60 ([2]; antibiotic 4 μg/mL): 157
glucose concentration, t = 120 ([2]; antibiotic 4 μg/mL): 147
glucose concentration, t = 180 ([2]; antibiotic 4 μg/mL): 150
glucose concentration, t = 240 ([2]; antibiotic 4 μg/mL): 149
F = the rate of change in glucose concentration in relation to the reference ([2]; antibiotic 8 μg/mL): 0%
dC/dT (rate of change in glucose concentration) ([2]; antibiotic 8 μg/mL): 0
glucose concentration, t = 0 ([2]; antibiotic 8 μg/mL): 142
glucose concentration, t = 60 ([2]; antibiotic 8 μg/mL): 154
glucose concentration, t = 120 ([2]; antibiotic 8 μg/mL): 150
glucose concentration, t = 180 ([2]; antibiotic 8 μg/mL): 154
glucose concentration, t = 240 ([2]; antibiotic 8 μg/mL): 140
F = the rate of change in glucose concentration in relation to the reference ([2]; antibiotic 16 μg/mL): 0%
dC/dT (rate of change in glucose concentration) ([2]; antibiotic 16 μg/mL): 0
glucose concentration, t = 0 ([2]; antibiotic 16 μg/mL): 139
glucose concentration, t = 60 ([2]; antibiotic 16 μg/mL): 145
glucose concentration, t = 120 ([2]; antibiotic 16 μg/mL): 150
glucose concentration, t = 180 ([2]; antibiotic 16 μg/mL): 145
glucose concentration, t = 240 ([2]; antibiotic 16 μg/mL): 145
F = the rate of change in glucose concentration in relation to the reference ([2]; antibiotic 32 μg/mL): 3%
dC/dT (rate of change in glucose concentration) ([2]; antibiotic 32 μg/mL): 1
glucose concentration, t = 0 ([2]; antibiotic 32 μg/mL): 144
glucose concentration, t = 60 ([2]; antibiotic 32 μg/mL): 148
glucose concentration, t = 120 ([2]; antibiotic 32 μg/mL): 145
glucose concentration, t = 180 ([2]; antibiotic 32 μg/mL): 146
glucose concentration, t = 240 ([2]; antibiotic 32 μg/mL): 145
MIC, Measured ([2]; S.aureus, 80% threshold of reference rate of change, 60 to 180 minutes): 0.25 mg/L
